Ends that are not written are not given here.
Legend:
[1] = system: human peripheral blood mononuclear cells (MCP-1); test: SPOT-synthesized derivative screen: production of chemokine MCP-1; assay type: cell-based; conditions: Table 12, No LPS, human PBMC, peptide at ~18-24 μM; for MCP1: background subtracted 139 (HH2 derivatives), 170 (1018 derivatives), 242 (1002 and hybrid peptides) pg/ml
In short: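 PBMC from heparinized healthy-donor venous blood, Ficoll-separated, cultured at 0.75 to 1×10^6 cells/ml, 37 °C, 5% CO2, under the treatment regimens. MCP-1 in cell-free supernatants measured by capture ELISA.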

[2] = system: methicillin resistant Staphylococcus aureus (MRSA) biofilm; conditions: approximate peptide concentration […] (around 3 μg/ml); compared to untreated samples
In short: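 Static biofilm assay: 1/100 dilutions of overnight cultures grown in BM2 medium (pH 7, glucose, Casamino Acids) or Luria Broth with peptide added at time zero. After 22–46 h, adherent biofilm was stained with crystal violet and read at 595 nm. Some peptides were also tested on K. pneumoniae under flow in a Bioflux system.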

[3] = system: LPS-stimulated human peripheral blood mononuclear cells (IL1-β); assay type: cell-based; conditions: Table 12, cells stimulated with 10 ng/ml LPS; for IL1β Production: LPS alone 1313 (HH2 derivatives), 1927 (1018 derivatives), 2455 (1002 and hybrid peptides) pg/ml

| Substance | Fold increase in MCP1 cf. untreated cells [1] | MCP1 [1] [pg/mL] | % Biofilm inhibition [2] [%] | Fold change in IL1β relative to no peptide LPS stimulated cells [3] | IL1β Production [3] [pg/mL] |
| --- | --- | --- | --- | --- | --- |
| HH2-I8: single substituted HH2 peptide (VQLRIRVIVIRA-NH2) | 17 | 2789 | 74 | 0.53 | 701 |
| HH2-Q3: single substituted HH2 peptide (VQQRIRVAVIRA-NH2) | 6.8 | 989 | 28 | 0.87 | 1141 |
| 1002-L9: single substituted 1002 peptide (VQRWLIVWLIRK-NH2) [Peptide 1002-L9] | 1.8 | 199.1 | 57 | 0.05 | 127 |
| 1002-Q10: single substituted 1002 peptide (VQRWLIVWRQRK-NH2) [Peptide 1002-Q10] | 1.3 | 71.2 | 39 | 0.05 | 127 |
| 1018-Q11: single substituted 1018 peptide (VRLIVAVRIWQR-NH2) [Peptide 1018-Q11] | 11 | 1773 | 51 | 1.24 | 1625 |
| 1002-L12: single substituted 1002 peptide (VQRWLIVWRIRL-NH2) [Peptide 1002-L12] | 4.7 | 905.7 | 64 | 0.05 | 127 |
| 1002-A12: single substituted 1002 peptide (VQRWLIVWRIRA-NH2) [Peptide 1002-A12] | 1.4 | 91.3 | 37 | 0.05 | 127 |
| 1018-A1: single substituted 1018 peptide (ARLIVAVRIWRR-NH2) [Peptide 1018-A1] | 1.9 | 161 | 51 | 0.13 | 170 |
| 1018-G12: single substituted 1018 peptide (VRLIVAVRIWRG-NH2) [Peptide 1018-G12] | 1.0 | 7 | 53 | 0.37 | 490 |
| 1018-W6: single substituted 1018 peptide (VRLIVWVRIWRR-NH2) [Peptide 1018-W6] | 0.7 | -54 | 75 | 0.24 | 310 |
| HH2-K4: single substituted HH2 peptide (VQLKIRVAVIRA-NH2) | 10 | 1553 | 65 | 0.58 | 759 |
| HH2-A5: single substituted HH2 peptide (VQLRARVAVIRA-NH2) | 1.3 | 59 | 45 | 1.60 | 2095 |
| 1018-K4: single substituted 1018 peptide (VRLKVAVRIWRR-NH2) [Peptide 1018-K4] | 1.2 | 40 | 41 | 0.30 | 393 |
| HH2-W5: single substituted HH2 peptide (VQLRWRVAVIRA-NH2) | 14 | 2198 | 63 | 0.77 | 1007 |
| 1018-Q8: single substituted 1018 peptide (VRLIVAVQIWRR-NH2) [Peptide 1018-Q8] | 0.4 | -104 | 51 | 0.10 | 127 |
| 1002-Q11: single substituted 1002 peptide (VQRWLIVWRIQK-NH2) [Peptide 1002-Q11] | 13.5 | 3022.9 | 67 | 0.05 | 127 |
| HH2-A9: single substituted HH2 peptide (VQLRIRVAAIRA-NH2) | 1.9 | 157 | 51 | 1.46 | 1923 |
| HH2-W11: single substituted HH2 peptide (VQLRIRVAVIWA-NH2) | 15 | 2309 | 45 | 1.04 | 1362 |
| 1002-R2: single substituted 1002 peptide (VRRWLIVWRIRK-NH2) [Peptide 1002-R2] | 4.5 | 840.0 | 60 | 0.05 | 127 |
| 1002-K6: single substituted 1002 peptide (VQRWLKVWRIRK-NH2) [Peptide 1002-K6] | 0.9 | -36.2 | 2 | 0.33 | 808 |
| 1002-A2: single substituted 1002 peptide (VARWLIVWRIRK-NH2) [Peptide 1002-A2] | 2.0 | 245.4 | 68 | 0.05 | 127 |
| HH2-Q12: single substituted HH2 peptide (VQLRIRVAVIRQ-NH2) | 13 | 2034 | 72 | 0.73 | 965 |
| 1018-I3: single substituted 1018 peptide (VRIIVAVRIWRR-NH2) [Peptide 1018-I3] | 0.7 | -50 | 68 | 0.12 | 156 |
| HH2-L6: single substituted HH2 peptide (VQLRILVAVIRA-NH2) | 1.8 | 138 | 18 | 0.69 | 901 |
| 1002-G8: single substituted 1002 peptide (VQRWLIVGRIRK-NH2) [Peptide 1002-G8] | 0.9 | -36.2 | 42 | 0.28 | 692 |
| HH2-K1: single substituted HH2 peptide (KQLRIRVAVIRA-NH2) | 6.7 | 968 | 55 | 1.08 | 1423 |
| 1018-A2: single substituted 1018 peptide (VALIVAVRIWRR-NH2) [Peptide 1018-A2] | 0.6 | -65 | 64 | 0.10 | 127 |
| 1018-L6: single substituted 1018 peptide (VRLIVLVRIWRR-NH2) [Peptide 1018-L6] | 0.7 | -60 | 69 | 0.26 | 340 |
| HH2-I4: single substituted HH2 peptide (VQLIIRVAVIRA-NH2) | 11 | 1669 | 47 | 0.58 | 760 |
| 1018-K10: single substituted 1018 peptide (VRLIVAVRIKRR-NH2) [Peptide 1018-K10] | 3.3 | 390 | 63 | 0.24 | 310 |

— US20190315823A1, “SMALL CATIONIC ANTI-BIOFILM AND IDR PEPTIDES” (priority 2013, published 2019)
